Laboratory results reported in patent US20250161309A1, “TOPICAL COMPOSITIONS AND USES THEROF” (TOPADUR PHARMA AG, priority 2022, published 2025).

What was measured:
[1] = tested on: C57BL/6 mouse model of alopecia; assay: Topical administration and hair growth in C57BL/6 mouse model of alopecia (telogen phase, clipped dorsal skin); type: in vivo; conditions: female mice
Source text: Dorsal hair of C57BL/6 mouse is known to have a time synchronized hair cycle. From about 18-21 days of age (2-3 weeks old) and 47-95 days of age (6-14 weeks old), the dorsal hair are in the telogen/quiescent phase (visually pink skin) [Lee B H, Lee J S, Kim Y C. Hair growth-promoting effects of lavender oil in C57BL/6 mice. Toxicol Res. (2016) 32(2):103-108; Choi H I, Kang B M, Jang J, Hwang S T, Kwon O. Novel effect of sildenafil on hair growth. Biochem Biophys Res Commun. (2018) 505(3):685-691]. C57BL/6 mouse therefore is a well-established model for studying hair growth promotion.
Male and female C57BL/6 mice of 6 to 9 weeks of age in stable telogen phase of hair growth cycle were used (obtained from Vivo Bio Tech Ltd, Telangana, India).
50 μL of a clear solution of respective 0.02%, 0.002% and 0.0002% (w/v) concentrations of Cpd 1 in the corresponding vehicle (PEG-400:EtOH/7:3) (PEG-400: Central Drug House Ltd. Dehli, India; Ethanol: Changshu Hongsheng fine chemicals Co. Ltd. China) and the positive control, 2% solution (female) or 5% (male) (w/v) Minoxidil (Chemieliva, China) in the corresponding vehicle (PEG-400:EtOH/7:3) were topically applied to the clipped area on the dorsal back of the mice. The solutions covered a circular area of approximately 2 cm^2. The treatment regimen was twice daily application for 5 days/week for total of 4 weeks.
The selected animals on day 1 weighted on average 20.05 g±0.17 ranging from 19.8 to 20.2 g. The hair on the dorsal back (approx. 4×4 cm^2) of these animals were clipped without touching the skin of the animal, using an electric clipper, on day 0 before the treatment with Cpd 1 and the hair was collected. The treatment followed by visual analysis for anagen onset, skin color change and appearance of any hair growth were monitored. After completion of the experiment, the dorsal skin of all the animals was removed and visual melanogenesis was reported. The skin sections were then preserved in 10% formalin solution for further histopathology analysis.
Animals were observed during 30 days and the hair growth score was recorded on daily basis. The criteria for scoring of hair growth is as follows: no hair growth, pink skin—score 0; skin colour changes from pink to grey/light grey without visible hair growth—score 0.5 onset of anagen (skin colour changes from grey/light grey to dark grey/black without visible hair growth)—score 1; sparse hair growth—score 1.5; diffuse short hair growth—score 2, moderate hair growth—score 2.5 and dense, normal coat hair—score 3 (Lee B H, Lee J S, Kim Y C. Hair growth-promoting effects of lavender oil in C57BL/6 mice. Toxicol Res. (2016) 32(2):103-108).
Photographs of the animals were captured before the initiation and during the course of the study.
(§1) After completion of the experiments all animals were sacrificed by euthanasia (Choi H I, Kang B M, Jang J, Hwang S T, Kwon O. Novel effect of sildenafil on hair growth. Biochem Biophys Res Commun. (2018) 505(3):685-691). The dorsal skin of each animal was then removed by peeling. The peeled skin was spread and checked visually for the induction of melanogenesis indicated by visual blackening on the reverse side of the skin. The skin samples were evenly spread on a pre-labelled glass slide and kept in 10% formalin until further use. Later, the skin samples were embedded in paraffin and sectioned at 5 microns using a microtome and the corresponding slides per animal were prepared. The slides obtained were used for Haematoxylin & Eosin (H&E) staining and in the transverse and longitudinal sections' photomicrographs data, the total number of follicles in the dermis and the sub cutis were determined for each animal. The skin thickness was measured using Image J 1.44 software.
The statistical analyses were performed using GraphPad Prism 9.0.0 software. Statistical significance was determined by One-way or Two-Way ANOVA followed by Tukey's multiple comparison test. […]

[2] = tested on: C57BL/6 mouse model for chemotherapy-induced alopecia (CIA); assay: Preventive C57BL/6 mouse model of cyclophosphamide (chemotherapy)-induced alopecia (CIA), topical administration; type: in vivo; conditions: female mice, 2% Minoxidil
Method: Female C57BL/6 mice (Vivo Bio Tech Ltd, Telangana, India) of 6 to 9 weeks of age in stable telogen phase of hair growth cycle were used.
100 μL of a clear solution of respective 0.0004%, 0.002% (w/v) concentrations of Cpd 1 in the corresponding vehicle (PEG-400:EtOH/7:3) (PEG-400: Central Drug House Ltd. Dehli, India; Ethanol: Changshu Hongsheng fine chemicals Co. Ltd. China) and the positive control, 2% solution (w/v) Minoxidil (Chemieliva, China) in the corresponding vehicle (PEG-400:EtOH/7:3) were topically applied to the depilated area on the dorsal back of female mice. The solutions covered a circular area of approximately 4 cm^2. The treatment regimen was twice daily for 7 days before Cyclophosphamide injection and afterwards for 3 weeks.
Animals (female) on day 1 weighted on average 18.8 g+0.2 ranging from 18.5 to 19.3 g. The animals were exposed by gentle clipping of hair from the dorsal back using an electric clipper. The following day, animals with clear skin were depilated using a depilatory cream. To evaluate the preventive potential of Cpd 1 in the chemotherapy-induced alopecia mouse model, animals were treated topically with 0.0004% and 0.002% Cpd 1, 2% Minoxidil and vehicle from day 1 onwards on the dorsal depilated skin with twice daily application regimen until day 10, when all the animals have attained the anagen stage. On day 11 after depilation, no application of the Cpd 1 or vehicle was done. This was considered a wash-out period. On day 12 after depilation, the animals were given intraperitoneal injection of cyclophosphamide (CYP-HiMedia Laboratories, Mumbai, India) at the dose of 150 mg/kg body weight. One day of wash-out period was given to the animals before restarting the treatment with Cpd 1. The treatment regimen was reinitiated with 0.0004% and 0.002% Cpd 1, 2% Minoxidil and vehicle in the respective groups for further 3 weeks. All the animals were observed from day 1 (experiment start) till day 30 (experiment termination and animal sacrifice day) and the hair growth score was recorded on a daily basis. The criteria for scoring of hair growth is as follows: no hair growth, pink skin—score 0; skin colour changes from pink to grey/light grey without visible hair growth—score 0.5; onset of anagen (skin colour changes from grey/light grey to dark grey/black without visible hair growth)—score 1; sparse hair growth—score 1.5; diffuse short hair growth—score 2, moderate hair growth—score 2.5 and dense, normal coat hair—score 3 (Lee B H, Lee J S, Kim Y C. Hair growth-promoting effects of lavender oil in C57BL/6 mice. Toxicol Res. (2016) 32(2):103-108). Photographs of the animals were captured before the initiation and during the course of the study. […]
as §1, with “software. […]” for “software.”

SMILES: Nc1cc(N2CCCCC2)nc(N)[n+]1[O-] [Minoxidil, 2,4-diamino-6-piperidinopyrimidine-3-oxide, reference compound]
- visual melanogenesis in peeled skin ([1]; positive control 2% (w/v) Minoxidil, end of study): No visual melanogenesis
- animals with complete hair growth (hair growth score of 3) [2]: 3/7
- animals with moderate hair growth (hair growth score of 2-2.5) [2]: 4/7
- attainment of hair growth compared to vehicle [2]: faster attainment
- depth and development of dermal papilla and long hair shaft of hair follicles observed (longitudinal skin sections) [2]: majority of the animals
- thickness of the skin compared to vehicle group [2]: slightly increase
- mice with visual melanogenesis in peeled skin ([2]; end of study): 7/7
- Ki-67 score (positive cells near the follicular region, semi-quantitative grading) ([2]; vehicle 0.4): 1.1
- CD-31 mean score (perifollicular angiogenesis, semi-quantitative grading) ([2]; vehicle group 0.8): 1.4

SMILES: CCCOc1ccc(S(=O)(=O)N2CCN(CCO[N+](=O)[O-])CC2)cc1-c1nc2c(CCC)cn(CC)c2c(=O)[nH]1 [Cpd 2, 2-(4-((3-(5-ethyl-4-oxo-7-propyl-4,5-dihydro-3H-pyrrolo[3,2-d]pyrimidin-2-yl)-4-propoxyphenyl)sulfonyl)piperazin-1-yl)ethyl nitrate]
- number of follicles in the subcutis layer of the skin and total follicle counts compared to control group [1]: considerable higher number
- animals with visual melanogenesis in peeled skin ([1]; 0.002% (w/v), end of study): 1/5
- skin thickness compared to vehicle and 2% Minoxidil groups ([1]; 0.02% (w/v)): increased
- animals with visual melanogenesis in peeled skin ([1]; 0.02% (w/v), end of study): 1/5
- anagen hair follicles (histology, H&E) compared to control groups ([1]; Cpd 2-treated groups): more
- area of black skin compared to control groups ([1]; at day 30): larger
- adverse effects in relation to general health or body weight ([1]; topical twice daily, 5 days/week, 4 weeks, compared to vehicle group): No adverse effects
- day of skin colour change from pink to light grey (transition from telogen to anagen phase) ([1]; treated group 2 (Table 2: 0.002% (w/v)), after hair growth induction): 10 day
- hair growth score among treatment groups ([1]; treated group 2 (Table 2: 0.002% (w/v)), at day 30, followed by low dose groups and Minoxidil group): maximal
- hair growth (score) compared to 2% Minoxidil ([1]; treated group 2 (Table 2: 0.002% (w/v)), at days 25, 29 and 30): significant increase
- hair growth (score) compared to vehicle ([1]; treated group 2 (Table 2: 0.002% (w/v), Composition A5), from day 23 on): significantly higher
- hair growth compared to vehicle group ([1]; treated group 3 (Table 2: 0.02% (w/v), Composition A6), at day 29 and 30): significantly higher
